The results in this text go back to patent US20250114369A1, “COMPOUNDS AND METHODS FOR TREATMENT OF VIRAL INFECTIONS” (Gilead Sciences, Inc., priority 2023, published 2025).

Usually half-life stands for the time needed for the level to fall by half in the phase considered. Read a high half-life as slow loss. For orientation: EC50 means the concentration giving half of the maximal effect. For orientation: pEC50 means the negative decadic logarithm of the EC50, by convention in mol/L. One may read the thermodynamic solubility as the concentration in solution at equilibrium with solid. As a reminder, the CC50 is the concentration that lowers cell viability or growth by half. High values mean lower toxicity to the cells, low ones greater toxicity to the cells.

pEC50: −log10 of the molar value. ≈ marks a conversion by molar mass, not a printed value.

The test system of data set [1] is Caco-2 cells (clone C2BBel). The data set can be described thus: CACO-2 permeability. The class given is in vitro ADME. Particulars: donor pH 6.5, receiver pH 7.4; for DM Caco2 A to B: forward (A to B); for DM Caco2 B to A: reverse (B to A). The protocol:
Pre-plated Caco-2 cells (clone C2BBel) were obtained from Sigma-Aldrich, Inc. (Atlanta, GA). Cell monolayers were grown to confluence on collagen-coated, microporous, polycarbonate membranes in 24-well transwell plates for 21 days. The permeability assay buffer in donor wells was Hanks' balanced salt solution (HBSS) containing 10 mM HEPES and 15 mM glucose at a pH of 6.5 containing 200 μM BNPP. The receiver wells used HBSS buffer containing 10 mM HEPES and 15 mM glucose at a pH of 7.4 and supplemented with 1% BSA. After an initial equilibration with transport buffer, TEER values were read to test membrane integrity. The experiment was started by the addition of buffers containing test compounds, 200 μl and 1000 μl in the apical and basolateral chamber, respectively. At 0- and 2-hour post dose, 10 μL was sampled from donor compartment and was immediately diluted in 190 μL of 20% methanol. At 1 and 2 hours post dose, 100 μl of solution was taken from the receiver compartments and was immediately diluted in 100 μl of 20% methanol. Removed buffer was replaced with fresh buffer and a correction was applied to all calculations for the removed material. Each compound was tested in 2 separate replicate wells for each condition. All samples were then extracted with 400 μl 100% acetonitrile with internal standard to precipitate protein. Cells were dosed on the apical or basolateral side to determine forward (A to B) and reverse (B to A) permeability. To test for non-specific binding and compound instability, the total amount of drug was quantitated at the end of the experiment and compared to the material present in the original dosing solution as a percent recovery. Formation of the parent compound (GS-441524; Reference Compound A) was monitored in assay wells dosed with the prodrug. Samples were analyzed by LC-MS/MS.
(In general: Caco-2 monolayers are a common model of the intestinal barrier.)

Data set [2] is described as follows: in vitro. In kind it is in vitro ADME. The settings on record: human, s9, pH 7.4. Here is the method:
Duplicate aliquots of test compound or positive control substrate (GS-7340) were added to S9 stock diluted with 100 mM potassium phosphate buffer, pH 7.4, to obtain a protein concentration of 2.4 mg/mL. The S9 metabolic reactions were initiated by the addition of the substrates to the S9 reaction mixture to a final concentration of 2 μM. At 2, 12, 25, 45, 65 and 90 min, 25 μL aliquots of the reaction mixture were transferred to plates containing 225 μl of IS/Q solution. After quenching, the plates were centrifuged at 3000×g for 30 minutes, and 150 μL aliquots of each supernatant were diluted with 150 μL water. Aliquots (10 μL) of the diluted supernatant were analyzed on a Thermo Q-Exactive mass spectrometer as described below. Quantification of test compounds and controls was performed by analyte/internal standard peak area ratio (PAR) values measured on a Thermo Q-Exactive mass spectrometer coupled to a Dionex UltiMate 3000 HPLC with a Leap Technologies HTC PAL autosampler. The column used was a Thermo Hypersil GOLD (1.9 μm particle size, 2.1×50 mm). Mobile phase A consisted of […] formic acid in water. Mobile phase B consisted of 0.1% (v/v) formic acid in acetonitrile. Elution of analytes was achieved by a series of linear gradients of acetonitrile in water containing 0.1% (v/v) formic acid. The mass spectrometer was calibrated on a weekly basis and mass tolerance of 5 ppm was used.

The subject of data set [3] is Respiratory syncytial virus recombinant with luciferase (RSV-Luc5). As to the kind of experiment: microbe, parasite or virus in culture. In kind it is cell-based. Particulars: human respiratory syncytial virus, NHBE, 72 h, read-out: RSV NHBE EC50 (nM).
The test system of data set [4] is SARS Coronavirus 2 recombinant with NanoLuc (SARS-CoV2-NLuc). As to the kind of experiment: organism not typed. The class given is cell-based. The settings on record: 48 h.
The next data set in a line: physchem. In kind it is physicochemical. Particulars: pH 7, aqueous buffer, thermodynamic from solid. The protocol: The aqueous solubility of compounds over a time of 24 hours was assessed. Solubility was determined at ambient temperature in a 50 mM phosphate buffered pH7 solution with 150 mM NaCl (to achieve isotonicity). Solids were added to the buffered solution in 1.5-mL Eppendorf tubes, vortexed for 1 minute, then agitated for 24 hours in an Eppendorf ThermoMixer C. To determine concentration in solution, the suspensions were centrifuged for 15 min at 15,000 rpm. Supernatants were diluted to a volume of 1 mL with 30:70 v/v acetonitrile:water. All diluted supernatants were analyzed by UPLC using a Waters Acquity UPLC with a PDA UV detector.

A short description of data set [5]: in vitro. The class given is cell-based. Particulars: human.
A short description of data set [6]: in vitro. The class given is in vitro ADME. Particulars: human, s9, pH 7.4. In short, it runs like this: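 Intestinal S9 stability: compounds at 2 μM final in PMSF-free intestinal S9 (1.0 mg/mL protein, 100 mM PBS pH 7.4), duplicates, GS-7340 as positive control substrate. Samples at 0, 10, 20, 30, 60 and 120 min quenched; analyte quantified by LC-MS (Q-Exactive) as analyte/internal standard peak area ratio.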
This is another data set of the same source.

Data set [7] is classed as in vitro ADME. The settings on record: 2 μM. In short, it runs like this:
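Compound added to duplicate plasma aliquots at 37 °C to 2 μM final; sampled at 0.05, 0.5, 1, 2, 3 and 4 hr and quenched with internal-standard solution. Remaining compound quantified by analyte/internal standard peak area ratio by LC-HRMS (Q-Exactive, 5 ppm mass tolerance).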
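Throughout, for CC50: uninfected MT-4 cells over 4-5 days by CellTiter-Glo.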

With `CC(C)NC(=O)OC[C@H]1O[C@@](C#N)(c2ccc3c(N)ncnn23)[C@H](O)[C@@H]1O` [Compound 8, [(2R,3S,4R,5R)-5-(4-aminopyrrolo[2,1-f][1,2,4]triazin-7-yl)-5-cyano-3,4-dihydroxy-tetrahydrofuran-2-yl]methyl N-isopropylcarbamate], in data set [1], the “DM Caco2 A to B” value was found to be 0.11 and the “DM Caco2 B to A” value is listed as 0.79. This molecule also had a half-life at 2 μM in “in vitro [2]” not below 592 min. The EC50 in data set [3] was more than 50000 nM. The pEC50 in data set [4] is 4.50. Also, in “physchem”, the thermodynamic solubility at 24 h was more than 13000 µg/mL. This molecule gave a CC50 in “in vitro [5]” of more than 50 µM. Moreover, the half-life at 2 μM in “in vitro [6]” worked out at 784 min.
On to `N#C[C@@]1(c2ccc3c(N)ncnn23)O[C@H](COC(=O)N2CCCCC2)[C@@H](O)[C@H]1O` [Compound 13, [(2R,3S,4R,5R)-5-(4-aminopyrrolo[2,1-f][1,2,4]triazin-7-yl)-5-cyano-3,4-dihydroxy-tetrahydrofuran-2-yl]methyl piperidine-1-carboxylate], for which, in data set [1], the “DM Caco2 A to B” value is reported as 0.3 and the “DM Caco2 B to A” value is recorded as 6.39. The molecule further yielded a half-life at 2 μM in “in vitro [2]” not below 592 min. In data set [7], the “STA Human Plasma 37” value came out at 1584. The EC50 in data set [3] is more than 50000 nM. Also, the pEC50 in data set [4] was less than 4.30. This molecule displayed a solubility (thermodynamic) at 24 h in the data set “physchem” of 4480 µg/mL (≈ 11100 µM). The molecule further returned a cytotoxic concentration (CC50) in the data set “in vitro [5]” of more than 50 µM. Further, the half-life at 2 μM in the data set “in vitro [6]” was not below 789 min.
Turning to `CC(=O)O[C@H]1[C@@H](OC(C)=O)[C@](C#N)(c2ccc3c(N)ncnn23)O[C@@H]1COC(=O)N1CCCCCCC1` [Compound 19, [(2R,3R,4R,5R)-3,4-diacetoxy-5-(4-aminopyrrolo[2,1-f][1,2,4]triazin-7-yl)-5-cyano-tetrahydrofuran-2-yl]methyl azocane-1-carboxylate], in data set [1], the “DM Caco2 A to B” value is reported as 6.33 and the “DM Caco2 B to A” value amounted to 13.32. In the data set “in vitro [2]”, the half-life at 2 μM is not above 2 min. In addition, the “STA Human Plasma 37” value in data set [7] stood at 14.703. In addition, in data set [3], the EC50 is 18000 nM. Further, the pEC50 in data set [4] is 4.50. In addition, in the data set “physchem”, the solubility (thermodynamic) at 24 h is 110 µg/mL (≈ 214 µM). In addition, the CC50 in “in vitro [5]” is more than 50 µM. In “in vitro [6]”, this molecule gave a half-life at 2 μM of 0.764 min.
As for `CCOC(=O)c1cccn1C(=O)OC[C@H]1O[C@@](C#N)(c2ccc3c(N)ncnn23)[C@H](OC(C)=O)[C@@H]1OC(C)=O` [Compound 20, O1-[[(2R,3R,4R,5R)-3,4-diacetoxy-5-(4-aminopyrrolo[2,1-f][1,2,4]triazin-7-yl)-5-cyano-tetrahydrofuran-2-yl]methyl]O2-ethyl pyrrole-1,2-dicarboxylate], in data set [1], the “DM Caco2 A to B” value is reported as 3.16 and the “DM Caco2 B to A” value was found to be 9.63. In “in vitro [2]”, the half-life at 2 μM is not above 2 min. Moreover, the “STA Human Plasma 37” value in data set [7] is 67.544. Also, the EC50 in data set [3] was determined as 731 nM. For the same molecule, the pEC50 in data set [4] is 5.37. Also, the thermodynamic solubility at 24 h in the data set “physchem” stood at 10 µg/mL (≈ 18.5 µM). Also, the CC50 in the data set “in vitro [5]” was more than 50 µM. This molecule came in with a half-life at 2 μM in the data set “in vitro [6]” of 0.627 min.
Regarding `CC(=O)O[C@H]1[C@@H](OC(C)=O)[C@](C#N)(c2ccc3c(N)ncnn23)O[C@@H]1COC(=O)N1CCCCC1` [Compound 21, [(2R,3R,4R,5R)-3,4-diacetoxy-5-(4-aminopyrrolo[2,1-f][1,2,4]triazin-7-yl)-5-cyano-tetrahydrofuran-2-yl]methyl piperidine-1-carboxylate], the “DM Caco2 A to B” value in data set [1] is reported as 3.99. Further, the “DM Caco2 B to A” value in data set [1] is 19.68. Besides, the half-life at 2 μM in “in vitro [2]” was not above 2 min; in “in vitro [6]”, 0.673 min. Also, the “STA Human Plasma 37” value in data set [7] was determined as 11.334. In addition, in data set [3], the EC50 was more than 50000 nM. The pEC50 in data set [4] is less than 4.30. The molecule further came in with a thermodynamic solubility at 24 h in “physchem” of 370 µg/mL (≈ 761 µM). Besides, the CC50 in the data set “in vitro [5]” is more than 50 µM.
